Legend:
[1] = molecular target: Serine/threonine-protein kinase VRK2 (Homo sapiens) (UniProt Q86Y07); assay: Selectivity interaction (KinomeScan (DiscoverX)) EUB0001079a VRK2; conditions: at 1 µM
[2] = molecular target: T1, Tyrosine-protein kinase JAK3 (Homo sapiens) (UniProt P52333); conditions: at 10 µM
T1 sequence (whole entry): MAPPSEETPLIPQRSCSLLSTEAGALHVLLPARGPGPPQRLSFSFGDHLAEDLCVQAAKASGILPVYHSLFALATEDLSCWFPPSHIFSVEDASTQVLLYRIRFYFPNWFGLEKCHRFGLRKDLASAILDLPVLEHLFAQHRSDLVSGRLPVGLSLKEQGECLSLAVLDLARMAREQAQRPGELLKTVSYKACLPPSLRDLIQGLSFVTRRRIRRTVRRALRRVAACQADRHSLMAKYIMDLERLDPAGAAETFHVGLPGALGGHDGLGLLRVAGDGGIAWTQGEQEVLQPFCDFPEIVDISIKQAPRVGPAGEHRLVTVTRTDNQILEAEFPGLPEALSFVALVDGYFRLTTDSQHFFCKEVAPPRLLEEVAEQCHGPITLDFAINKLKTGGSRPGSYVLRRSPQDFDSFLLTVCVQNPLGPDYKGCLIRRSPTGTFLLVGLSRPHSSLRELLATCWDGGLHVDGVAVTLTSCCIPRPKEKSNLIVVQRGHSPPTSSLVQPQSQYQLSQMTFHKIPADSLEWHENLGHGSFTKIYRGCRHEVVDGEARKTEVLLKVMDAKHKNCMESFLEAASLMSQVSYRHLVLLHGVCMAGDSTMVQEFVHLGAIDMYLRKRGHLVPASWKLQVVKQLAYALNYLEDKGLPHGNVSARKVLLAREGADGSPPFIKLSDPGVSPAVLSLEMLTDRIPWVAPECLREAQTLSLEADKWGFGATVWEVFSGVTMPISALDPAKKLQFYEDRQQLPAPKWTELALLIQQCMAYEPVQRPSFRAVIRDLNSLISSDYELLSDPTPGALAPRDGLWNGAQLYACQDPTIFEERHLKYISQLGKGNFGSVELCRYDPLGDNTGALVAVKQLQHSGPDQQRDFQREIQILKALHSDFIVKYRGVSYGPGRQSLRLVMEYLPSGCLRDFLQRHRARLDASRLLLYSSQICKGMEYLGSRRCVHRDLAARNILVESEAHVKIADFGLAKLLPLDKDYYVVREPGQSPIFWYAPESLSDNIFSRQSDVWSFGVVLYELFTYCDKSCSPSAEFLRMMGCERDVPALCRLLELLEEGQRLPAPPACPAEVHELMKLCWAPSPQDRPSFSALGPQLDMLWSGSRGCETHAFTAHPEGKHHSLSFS

[3] = molecular target: T2, Protein kinase C epsilon type (Homo sapiens) (UniProt Q02156); conditions: at 10 µM
T2 sequence (whole entry): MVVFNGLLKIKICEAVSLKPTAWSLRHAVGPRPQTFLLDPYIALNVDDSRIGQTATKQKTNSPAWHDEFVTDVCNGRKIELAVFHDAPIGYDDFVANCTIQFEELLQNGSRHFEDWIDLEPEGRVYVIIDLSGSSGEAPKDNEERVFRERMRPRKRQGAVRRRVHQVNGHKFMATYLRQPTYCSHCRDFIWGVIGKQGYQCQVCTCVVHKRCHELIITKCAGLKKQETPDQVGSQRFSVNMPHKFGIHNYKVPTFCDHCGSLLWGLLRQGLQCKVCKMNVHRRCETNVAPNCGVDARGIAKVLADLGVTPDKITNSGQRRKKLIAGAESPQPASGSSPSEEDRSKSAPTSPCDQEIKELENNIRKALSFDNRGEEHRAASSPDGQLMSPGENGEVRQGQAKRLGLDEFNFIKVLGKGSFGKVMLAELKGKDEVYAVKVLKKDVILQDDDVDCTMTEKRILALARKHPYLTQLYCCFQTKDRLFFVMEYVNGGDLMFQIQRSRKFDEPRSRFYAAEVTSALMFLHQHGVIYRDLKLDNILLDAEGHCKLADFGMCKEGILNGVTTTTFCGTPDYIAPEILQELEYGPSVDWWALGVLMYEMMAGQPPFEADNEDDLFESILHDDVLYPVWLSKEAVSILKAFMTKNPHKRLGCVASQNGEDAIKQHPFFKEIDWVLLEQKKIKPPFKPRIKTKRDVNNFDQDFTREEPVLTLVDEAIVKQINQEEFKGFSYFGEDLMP

[4] = molecular target: Cyclin-dependent kinase 1 (Homo sapiens) (UniProt P06493); assay: Selectivity interaction (ActivX KiNativ screen (kinase selectivity in THP-1 cell lysates)) EUB0000639a CDK1; assay type: subcellular; conditions: lysate
Cyclin-dependent kinase 1 (Homo sapiens), sequence (P06493 whole entry, looked up): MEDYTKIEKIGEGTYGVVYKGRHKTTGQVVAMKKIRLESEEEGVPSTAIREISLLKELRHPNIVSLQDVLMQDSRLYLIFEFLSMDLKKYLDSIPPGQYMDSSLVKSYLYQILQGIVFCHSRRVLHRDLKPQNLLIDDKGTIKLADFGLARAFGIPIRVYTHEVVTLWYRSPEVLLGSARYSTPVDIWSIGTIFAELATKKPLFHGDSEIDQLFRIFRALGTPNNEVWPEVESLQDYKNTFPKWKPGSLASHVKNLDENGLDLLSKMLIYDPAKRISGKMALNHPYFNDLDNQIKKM

[5] = molecular target: BDNF/NT-3 growth factors receptor (Homo sapiens) (UniProt Q16620); assay: Selectivity interaction (KinomeScan (DiscoverX)) EUB0000092b NTRK2; conditions: at 10 µM
BDNF/NT-3 growth factors receptor (Homo sapiens), sequence (Q16620 32-822 limits assumed): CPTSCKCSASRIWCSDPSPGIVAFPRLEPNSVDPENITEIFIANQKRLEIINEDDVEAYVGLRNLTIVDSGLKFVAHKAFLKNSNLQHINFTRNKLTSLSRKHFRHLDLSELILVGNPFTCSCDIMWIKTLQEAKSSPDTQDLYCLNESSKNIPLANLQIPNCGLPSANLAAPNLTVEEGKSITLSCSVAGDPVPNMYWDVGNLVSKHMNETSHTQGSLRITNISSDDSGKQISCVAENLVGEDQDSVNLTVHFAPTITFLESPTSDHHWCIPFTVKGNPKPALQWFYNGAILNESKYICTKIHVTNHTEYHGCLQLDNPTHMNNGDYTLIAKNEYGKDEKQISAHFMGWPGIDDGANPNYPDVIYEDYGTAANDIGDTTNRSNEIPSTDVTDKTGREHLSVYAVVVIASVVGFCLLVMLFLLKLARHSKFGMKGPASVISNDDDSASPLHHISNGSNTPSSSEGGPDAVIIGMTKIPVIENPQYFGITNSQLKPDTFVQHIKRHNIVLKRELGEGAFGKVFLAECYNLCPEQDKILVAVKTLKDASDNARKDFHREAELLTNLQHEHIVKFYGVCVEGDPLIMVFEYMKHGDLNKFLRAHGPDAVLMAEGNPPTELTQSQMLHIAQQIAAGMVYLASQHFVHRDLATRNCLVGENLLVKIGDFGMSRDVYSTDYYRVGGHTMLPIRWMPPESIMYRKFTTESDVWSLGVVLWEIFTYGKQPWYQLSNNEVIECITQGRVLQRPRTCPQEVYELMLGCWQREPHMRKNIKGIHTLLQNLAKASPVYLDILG

[6] = Selectivity interaction (KinomeScan (DiscoverX)) EUB0000655a CDK2H; conditions: at 10 µM
[7] = molecular target: Focal adhesion kinase 1 (Homo sapiens, UniProt Q05397); assay: Selectivity interaction (KinomeScan (DiscoverX)) EUB0000695a PTK2; conditions: at 100 nM
Focal adhesion kinase 1, sequence (Q05397 2-1052 limits assumed): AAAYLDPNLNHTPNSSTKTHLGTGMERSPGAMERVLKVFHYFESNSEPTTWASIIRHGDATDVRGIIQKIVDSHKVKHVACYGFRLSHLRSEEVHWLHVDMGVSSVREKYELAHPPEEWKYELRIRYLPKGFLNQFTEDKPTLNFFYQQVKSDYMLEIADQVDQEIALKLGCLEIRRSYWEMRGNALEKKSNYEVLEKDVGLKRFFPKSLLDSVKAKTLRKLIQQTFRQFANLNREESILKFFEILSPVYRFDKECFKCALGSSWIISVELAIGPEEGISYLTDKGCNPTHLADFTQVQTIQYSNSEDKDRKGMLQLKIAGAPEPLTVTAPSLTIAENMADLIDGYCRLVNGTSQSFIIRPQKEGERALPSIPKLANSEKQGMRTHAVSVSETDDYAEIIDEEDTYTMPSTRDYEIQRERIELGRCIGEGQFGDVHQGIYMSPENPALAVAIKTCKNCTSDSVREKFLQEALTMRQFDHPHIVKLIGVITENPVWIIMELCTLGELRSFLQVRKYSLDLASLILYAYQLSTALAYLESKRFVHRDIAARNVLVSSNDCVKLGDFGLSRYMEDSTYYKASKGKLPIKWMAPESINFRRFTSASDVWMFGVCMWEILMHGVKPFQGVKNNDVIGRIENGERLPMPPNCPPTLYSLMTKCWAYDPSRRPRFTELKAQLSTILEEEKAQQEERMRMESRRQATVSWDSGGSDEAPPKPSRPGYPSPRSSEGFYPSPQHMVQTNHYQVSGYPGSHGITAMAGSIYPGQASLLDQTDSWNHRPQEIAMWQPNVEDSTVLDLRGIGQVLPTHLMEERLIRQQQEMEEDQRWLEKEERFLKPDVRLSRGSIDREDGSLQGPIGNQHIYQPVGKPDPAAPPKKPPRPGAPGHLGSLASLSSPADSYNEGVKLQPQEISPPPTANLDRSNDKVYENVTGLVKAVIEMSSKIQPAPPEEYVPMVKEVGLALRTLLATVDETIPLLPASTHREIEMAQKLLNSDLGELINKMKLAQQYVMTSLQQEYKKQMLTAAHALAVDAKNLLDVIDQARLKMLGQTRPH

[8] = molecular target: T3, Inhibitor of nuclear factor kappa-B kinase subunit beta (Homo sapiens) (UniProt O14920); assay: Selectivity interaction (SelectScreen profiling (Invitrogen)) EUB0000607a IKBKB; conditions: at 2 µM
T3 sequence (whole entry): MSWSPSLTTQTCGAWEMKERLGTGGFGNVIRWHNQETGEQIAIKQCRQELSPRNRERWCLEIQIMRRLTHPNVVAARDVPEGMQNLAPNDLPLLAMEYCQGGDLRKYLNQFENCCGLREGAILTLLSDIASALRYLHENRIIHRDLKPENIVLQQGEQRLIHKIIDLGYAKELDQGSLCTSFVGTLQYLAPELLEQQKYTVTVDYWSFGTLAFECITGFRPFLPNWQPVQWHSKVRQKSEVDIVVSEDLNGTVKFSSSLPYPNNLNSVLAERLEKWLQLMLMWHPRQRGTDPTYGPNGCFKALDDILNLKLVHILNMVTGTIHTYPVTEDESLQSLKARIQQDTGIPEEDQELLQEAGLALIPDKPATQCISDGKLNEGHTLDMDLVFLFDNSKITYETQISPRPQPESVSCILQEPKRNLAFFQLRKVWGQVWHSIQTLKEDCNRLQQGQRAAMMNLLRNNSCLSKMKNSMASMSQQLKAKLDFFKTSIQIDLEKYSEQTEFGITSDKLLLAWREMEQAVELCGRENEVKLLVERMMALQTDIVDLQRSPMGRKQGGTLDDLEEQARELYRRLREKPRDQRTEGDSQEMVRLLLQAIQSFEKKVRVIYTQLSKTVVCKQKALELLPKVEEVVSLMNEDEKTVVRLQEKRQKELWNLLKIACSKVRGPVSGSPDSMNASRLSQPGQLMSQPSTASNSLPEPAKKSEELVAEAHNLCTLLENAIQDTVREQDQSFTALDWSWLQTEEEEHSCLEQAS

Serine/threonine-protein kinase VRK2 (Homo sapiens), sequence (Q86Y07 whole entry): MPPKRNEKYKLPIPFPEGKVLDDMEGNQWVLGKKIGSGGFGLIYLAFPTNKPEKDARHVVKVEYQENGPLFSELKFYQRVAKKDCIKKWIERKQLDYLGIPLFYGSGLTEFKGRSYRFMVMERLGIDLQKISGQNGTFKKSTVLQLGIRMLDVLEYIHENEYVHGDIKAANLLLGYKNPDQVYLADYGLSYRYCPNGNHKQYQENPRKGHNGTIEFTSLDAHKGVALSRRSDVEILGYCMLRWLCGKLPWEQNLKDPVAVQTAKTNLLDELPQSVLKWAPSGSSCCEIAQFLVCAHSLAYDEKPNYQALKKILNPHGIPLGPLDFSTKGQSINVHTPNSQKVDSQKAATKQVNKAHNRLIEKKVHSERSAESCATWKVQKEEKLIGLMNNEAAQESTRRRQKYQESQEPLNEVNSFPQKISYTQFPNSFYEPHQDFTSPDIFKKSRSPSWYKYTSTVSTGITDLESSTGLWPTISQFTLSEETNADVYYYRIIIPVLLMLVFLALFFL

Nc1cnc(N2CCc3cc(S(=O)(=O)Nc4c(F)cc(Cl)cc4F)cc(N4CCCC4=O)c32)nc1 [TP-020n]
% of control [1]: 100%

CCN(CC)CCCCNc1ncc2cc(-c3cc(OC)cc(OC)c3)c(NC(=O)NC(C)(C)C)nc2n1
% of control [2]: 100%
% of control [3]: 100%

CC[C@@H]1[C@H](F)C(=O)N[C@@H]1COc1nccc2cc(C(N)=O)c(OC)cc12 [ZIMLOVISERTIB]
% of inhibition ([4]; at 0.01 µM): 2.4%
% of inhibition ([4]; at 0.04 µM): 3.3%
% of inhibition ([4]; at 0.2 µM): 14.8%
% of inhibition ([4]; at 1 µM): 3.1%
% of inhibition ([4]; at 5 µM): -9%

CCC(=O)N1CCN(c2ccc(-n3c(=O)ccc4cnc5ccc(-c6cnc7ccccc7c6)cc5c43)cc2C(F)(F)F)CC1
% of control [5]: 81%

CN(C)CCOc1ccc(-c2nc(-c3ccncc3)c(-c3ccc4c(c3)CC/C4=N\O)[nH]2)cc1
% of control [6]: 86%

Cc1cc(F)c(C(=O)Nc2cccc(-c3nncn3C(C)C)n2)cc1-n1cnc(C2CC2)c1
% of control [7]: 100%

CNC(=O)Nc1ccc(-c2nc(N3CC4CCC(C3)O4)c3cnn(C4CCC5(CC4)OCCO5)c3n2)cc1
% of inhibition [8]: -5%

Source: ChEMBL document CHEMBL5465560, “Selectivity Literature for EUbOPEN Chemogenomic Library” (2024)
